This passage reports IC50 and Selectivity of wild-type/mutant-type results from patent US10428081B2, “EGFR inhibitor, preparation method and use thereof” (Shanghai Hansoh Biomedical Co., Ltd., priority 2014, dated 2019).

In experiment [1] the target is exon 20 T790M mutant-type EGFR enzyme (Homo sapiens, UniProt P00533, T790M). As to the kind of experiment: Enzymologic experiment of T790M mutant-type EGFR (TR-FRET). The class given is biochemical. To be noted: for IC50: T790M EGFR enzyme, TR-FRET, ATP 1 to 10 uM; for Selectivity of wild-type/mutant-type: ratio WT IC50 / T790M IC50, enzyme. A digest of the protocol: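 Compound dilutions preincubated 10 min at room temperature; reaction ended with EDTA, then labeled antibody added for 1 h at room temperature. Inhibition rates derived from TR-FRET fluorescence signal, and IC50 obtained by curve fitting across concentrations.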
Sequence of exon 20 T790M mutant-type EGFR enzyme (P00533 25-1210 T790M): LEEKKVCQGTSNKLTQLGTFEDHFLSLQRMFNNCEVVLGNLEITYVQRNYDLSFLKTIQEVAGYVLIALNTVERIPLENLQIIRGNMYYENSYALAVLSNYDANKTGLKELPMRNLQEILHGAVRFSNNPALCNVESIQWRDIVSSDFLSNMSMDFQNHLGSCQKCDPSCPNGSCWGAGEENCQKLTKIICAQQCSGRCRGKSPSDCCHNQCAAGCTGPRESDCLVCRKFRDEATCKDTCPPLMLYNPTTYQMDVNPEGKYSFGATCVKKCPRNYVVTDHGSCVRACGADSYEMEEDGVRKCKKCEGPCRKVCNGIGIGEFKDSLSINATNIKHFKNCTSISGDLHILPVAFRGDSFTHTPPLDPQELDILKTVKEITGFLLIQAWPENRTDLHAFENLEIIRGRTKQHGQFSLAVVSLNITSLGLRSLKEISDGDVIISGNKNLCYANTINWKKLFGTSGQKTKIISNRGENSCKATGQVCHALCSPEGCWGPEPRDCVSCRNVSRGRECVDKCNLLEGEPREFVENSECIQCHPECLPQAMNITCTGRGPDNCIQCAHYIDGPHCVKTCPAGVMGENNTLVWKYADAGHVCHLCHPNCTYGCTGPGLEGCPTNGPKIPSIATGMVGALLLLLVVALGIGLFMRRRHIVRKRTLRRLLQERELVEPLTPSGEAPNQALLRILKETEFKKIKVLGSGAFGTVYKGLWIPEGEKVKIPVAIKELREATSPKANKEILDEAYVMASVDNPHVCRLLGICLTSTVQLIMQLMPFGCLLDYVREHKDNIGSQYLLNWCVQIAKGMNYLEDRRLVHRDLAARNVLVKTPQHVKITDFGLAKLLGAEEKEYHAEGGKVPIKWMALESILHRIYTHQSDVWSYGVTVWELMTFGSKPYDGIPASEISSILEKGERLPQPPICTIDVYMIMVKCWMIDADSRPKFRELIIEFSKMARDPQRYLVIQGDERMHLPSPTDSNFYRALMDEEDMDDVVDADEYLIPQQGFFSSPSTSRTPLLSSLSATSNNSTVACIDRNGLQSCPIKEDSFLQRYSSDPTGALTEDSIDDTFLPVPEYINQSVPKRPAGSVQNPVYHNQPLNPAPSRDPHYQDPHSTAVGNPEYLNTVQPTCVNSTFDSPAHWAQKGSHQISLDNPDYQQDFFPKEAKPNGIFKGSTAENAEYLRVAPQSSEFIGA
(In TR-FRET formats the signal depends on donor and acceptor labels being close together.)

In a further experiment the target is wild-type EGFR enzyme (Homo sapiens, UniProt P00533). Nature of the experiment: Enzymologic experiment of wild-type (WT) EGFR (TR-FRET). To be noted: ATP 0.1 to 5 uM. The class given is biochemical. In a few lines: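 Wild-type EGFR (0.1 to 1 nM final) preincubated with serially diluted compound for 10 minutes at room temperature; reaction stopped with EDTA, then labelled antibody added for 1 hour at room temperature. TR-FRET signal converted to inhibition rates; IC50 from curve fitting across concentrations.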
Sequence of wild-type EGFR enzyme (P00533 25-1210): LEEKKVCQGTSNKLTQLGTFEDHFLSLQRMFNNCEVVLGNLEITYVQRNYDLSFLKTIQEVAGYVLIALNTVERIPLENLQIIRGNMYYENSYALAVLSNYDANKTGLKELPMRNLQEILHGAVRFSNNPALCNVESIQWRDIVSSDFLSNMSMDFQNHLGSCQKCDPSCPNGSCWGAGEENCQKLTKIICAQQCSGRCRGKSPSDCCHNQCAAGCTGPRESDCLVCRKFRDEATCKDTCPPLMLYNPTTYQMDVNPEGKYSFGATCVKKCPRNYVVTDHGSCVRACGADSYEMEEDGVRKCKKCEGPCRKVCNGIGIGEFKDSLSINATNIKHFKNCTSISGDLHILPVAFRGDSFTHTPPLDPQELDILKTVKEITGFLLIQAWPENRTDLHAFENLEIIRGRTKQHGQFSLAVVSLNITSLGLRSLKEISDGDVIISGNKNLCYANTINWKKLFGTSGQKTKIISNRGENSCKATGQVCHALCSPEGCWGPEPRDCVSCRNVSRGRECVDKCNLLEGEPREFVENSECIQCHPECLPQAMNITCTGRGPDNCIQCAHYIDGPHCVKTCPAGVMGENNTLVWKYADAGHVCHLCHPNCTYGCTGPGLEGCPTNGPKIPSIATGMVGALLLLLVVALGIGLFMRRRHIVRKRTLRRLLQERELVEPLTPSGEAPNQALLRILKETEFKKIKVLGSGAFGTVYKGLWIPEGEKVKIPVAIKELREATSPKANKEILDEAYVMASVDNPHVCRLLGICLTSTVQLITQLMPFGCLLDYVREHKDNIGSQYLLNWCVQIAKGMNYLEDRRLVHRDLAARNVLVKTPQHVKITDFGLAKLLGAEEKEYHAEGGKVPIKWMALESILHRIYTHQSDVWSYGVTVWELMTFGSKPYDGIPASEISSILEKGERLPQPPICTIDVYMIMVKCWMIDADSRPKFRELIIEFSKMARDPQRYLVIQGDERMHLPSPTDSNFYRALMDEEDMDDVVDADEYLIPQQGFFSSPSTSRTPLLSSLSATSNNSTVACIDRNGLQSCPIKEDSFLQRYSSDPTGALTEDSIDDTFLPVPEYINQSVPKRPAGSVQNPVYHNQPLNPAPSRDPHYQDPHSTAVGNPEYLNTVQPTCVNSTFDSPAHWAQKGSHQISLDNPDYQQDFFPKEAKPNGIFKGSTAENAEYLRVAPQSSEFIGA

In the next experiment the test system is NCI-H1975 cells. Nature of the experiment: Inhibition of NCI-H1975 cell proliferation (CellTiter-Glo). The format is cell-based. To be noted: for IC50: Homo sapiens, NCI-H1975, 72 h, NCI-H1975 cell proliferation, 72 hours, CellTiter-Glo, read-out: EGFR IC50 (nM) H1975; for Selectivity of wild-type/mutant-type: ratio A431 IC50 / H1975 IC50, cells. A general note: In ATP-based viability assays light output follows the ATP content of the culture.

Another experiment deals with A431 cells. As to the kind of experiment: Inhibition of A431 cell proliferation (CellTiter-Glo). The format is cell-based. Particulars: Homo sapiens, A-431, 72 h, read-out: EGFR IC50 (nM) A431. The protocol:
4. Experiment on the Inhibition of A431 Cell Proliferation
In this experiment, the inhibitory effect of the compounds on A431 cell proliferation was tested by a CellTiter-Glo method, and the half maximal inhibitory concentration (IC50) of the compounds on the activity of cell proliferation was determined.
The culture plate was incubated in the incubator for 16 to 24 hours (37° C., 5% CO2).
2) Different concentrations of the test compound in a gradient dilution were added to the cells in the culture plate. The culture plate was incubated in an incubator for 72 hours (37° C., 5% CO2).
3) 50 to 100 μL of CellTiter-Glo reagent was added to each well. Then the culture plate was shaken for 10 minutes, and left to stand at room temperature for 10 minutes.
4) The chemiluminescence signal values of each plate were determined by a microplate reader.
5) The inhibition rates were calculated according to the chemiluminescence signal values. 6) The IC50 of the compound was obtained by curve fitting according to the inhibition rates at different concentrations.

Structures are written as SMILES.

The term IC50 denotes the concentration needed to halve the response being measured. Turning to `C=CC(=O)Nc1cc(Nc2nccc(-c3cn(S(=O)(=O)N(C)C)c4ccccc34)n2)c(OC(F)F)cc1N(C)CCN(C)C` [Example 21, N-(4-(difluoromethoxy)-2-((2-(dimethylamino)ethyl)(methyl)amino)-5-((4-(1-(N,N-dimethylsulfamoyl)-1H-indol-3-yl)pyrimidin-2-yl)amino)phenyl)acrylamide], the IC50 in experiment [1] amounted to 0.3 nM; against wild-type EGFR enzyme it was 0.4 nM; in the experiment on NCI-H1975 cells it was 3.23 nM; with A431 cells it was 70.8 nM. In addition, the Selectivity of wild-type/mutant-type in experiment [1] was 1.33; with NCI-H1975 cells, 21.93.

`C=CC(=O)Nc1cc(Nc2nccc(-c3cn(C4CC4)c4ccccc34)n2)c(OC)cc1N(C)CCN1CCCC1` [Example 123, N-(5-((4-(1-cyclopropyl-1H-indol-3-yl)pyrimidin-2-yl)amino)-4-methoxy-2-(methyl(2-(pyrrolidin-1-yl)ethyl)amino)phenyl)acrylamide]: the concentration for half-maximal inhibition (IC50) is 1.28 nM in experiment [1], 27.2 nM against wild-type EGFR enzyme, 14.9 nM in the experiment on NCI-H1975 cells and 527 nM with A431 cells. For the same compound, the results for the Selectivity of wild-type/mutant-type (in experiment [1]; with NCI-H1975 cells) were 21.23 and 35.37, respectively.

`C=CC(=O)Nc1cc(Nc2nccc(-n3ncc4ccccc43)n2)c(OC)cc1N(C)CCN(C)C` [Example 40, N-(5-((4-(1H-indazol-1-yl)pyrimidin-2-yl)amino)-2-((2-(dimethylamino)ethyl)(methyl)amino)-4-methoxyphenyl)acrylamide]: the IC50 in experiment [1] came out at 0.39 nM; against wild-type EGFR enzyme, 3.36 nM; in the experiment with NCI-H1975 cells, 1.95 nM; with A431 cells, 339 nM. Further, the Selectivity of wild-type/mutant-type in experiment [1] is 8.62; with NCI-H1975 cells, 174.05.

On to `C=CC(=O)Nc1cc(Nc2nccc(-n3ncc4ccc(OC)cc43)n2)c(OC)cc1N(C)CCN1CCCC1` [Example 136, N-(4-methoxy-5-((4-(6-methoxy-1H-indazol-1-yl)pyrimidin-2-yl)amino)-2-(methyl(2-(pyrrolidin-1-yl)ethyl)amino)phenyl)acrylamide], for which the IC50 stood at 0.78 nM in experiment [1], 4.33 nM against wild-type EGFR enzyme, 11.2 nM with NCI-H1975 cells and 336 nM in the experiment on A431 cells. The Selectivity of wild-type/mutant-type turned out to be 5.55 in experiment [1] and 30.04 in the experiment with NCI-H1975 cells.

With `C=CC(=O)Nc1cc(Nc2nccc(-c3cn(S(=O)(=O)N(C)C)c4ccccc34)n2)c(OC)cc1N(C)CCN(CC)CC` [Example 103, N-(2-((2-(diethylamino)ethyl)(methyl)amino)-5-((4-(1-(N,N-dimethylsulfamoyl)-1H-indol-3-yl)pyrimidin-2-yl)amino)-4-methoxyphenyl)acrylamide], the half-inhibitory concentration (IC50) was 0.24 nM in experiment [1], 1.61 nM against wild-type EGFR enzyme, 1.95 nM with NCI-H1975 cells and 98.6 nM in the experiment with A431 cells. The values for the Selectivity of wild-type/mutant-type (in experiment [1]; with NCI-H1975 cells) were 6.71 and 50.55, respectively.

Regarding `C=CC(=O)Nc1cc(Nc2nccc(-c3cn(C)c4cc(OC)ccc34)n2)c(OC)cc1N(C)CCN(C)C` [Example 25, N-(2-((2-(dimethylamino)ethyl)(methyl)amino)-4-methoxy-5-((4-(6-methoxy-1-methyl-1H-indol-3-yl)pyrimidin-2-yl)amino)phenyl)acrylamide], the IC50 in experiment [1] worked out at 0.36 nM; against wild-type EGFR enzyme, 7.11 nM; with NCI-H1975 cells, 4.56 nM; in the experiment with A431 cells it was 93.2 nM. Further, the Selectivity of wild-type/mutant-type in experiment [1] amounted to 19.9; with NCI-H1975 cells, 20.45.

Take `C=CC(=O)Nc1cc(Nc2ncc(Cl)c(-n3ncc4cc(OC)ccc43)n2)c(OC)cc1N(C)CCN(C)C` [Example 48, N-(5-((5-chloro-4-(5-methoxy-1H-indazol-1-yl)pyrimidin-2-yl)amino)-2-((2-(dimethylamino)ethyl)(methyl)amino)-4-methoxyphenyl)acrylamide]: the IC50 in experiment [1] was determined as 0.24 nM; on wild-type EGFR enzyme, 2.52 nM; in the experiment on NCI-H1975 cells, 1.75 nM; in the experiment on A431 cells, 102 nM. Besides, the Selectivity of wild-type/mutant-type turned out to be 10.5 in experiment [1] and 58.06 in the experiment on NCI-H1975 cells.
